Test results reported in US20060094749A1, “Substituted pyridoxines as anti-platelet agents” (Medicure International Inc., priority 2004, published 2006).

Key:
Format in all cases: cell-based
[1] = test system: platelets (platelet rich plasma); assay: Inhibition of platelet aggregation, collagen as agonist; settings: human PRP; for inhibition at 500 µM: compound 500 μM; for inhibition at 250 µM: compound 250 μM; for inhibition at 100 µM: compound 100 μM; for inhibition at 50 µM: compound 50 μM
Protocol: (§1) Platelet rich plasma (PRP) was obtained by drawing whole blood from normal human donors (not on any medication) into sodium citrate tubes (3.2%), and centrifuging at 160 xg for about 10 minutes. Platelet poor plasma (PPP) was obtained by centrifuging the remainder of the sample after the platelets were removed at 800 xg for about 10 minutes. The PRP was adjusted to a count of 280×10^9/L using a mixture of PRP and PPP. The platelets (200 μL) were incubated with the test compounds (25 μL) adjusted to various concentrations (50, 100, 250, and 500 μM) for about 30 minutes at room temperature (approximate final platelet count in the incubation mixture of 250×10^9/L). The samples were incubated for about 3 minutes at about 37° C., and then transferred to the mixing wells of a Chrono-log 4 channel aggregometer (Chrono-log Corp., Havertown, Pa.). After baselines were established, the agonist (25 μL of 40 μM ADP (Sigma, St. Louis, Mo.) or 25 μL of 50 μg/mL and 10 μg/mL collagen (Helena Laboratories, Beaumont, Tex.) or 25 μL of 120 μM thrombin receptor activating peptide (TRAP) (Sigma)) was then added. Aggregation was monitored for 5 minutes at 37° C. with stirring (1000 rpm). The amplitude and slope of each tracing were calculated to determine the amount of aggregation. Control samples were performed using only solvent. The % reduction in aggregation was calculated for each sample compared to the proper solvent control.

[2] = test system: platelets (platelet rich plasma); assay: Inhibition of platelet aggregation, ADP as agonist; settings: ADP 4 μM, human PRP, read-out: % Reduction in Aggregation, ADP (4 μM); for inhibition at 500 µM: compound 500 μM; for inhibition at 250 µM: compound 250 μM; for inhibition at 100 µM: compound 100 μM
Protocol: as §1

[3] = test system: platelets (platelet rich plasma); assay: Inhibition of platelet aggregation, thrombin receptor activating peptide (TRAP) as agonist; settings: TRAP 12 μM, human PRP, read-out: % Reduction in Aggregation, TRAP (12 μM); for inhibition at 500 µM: compound 500 μM; for inhibition at 250 µM: compound 250 μM; for inhibition at 100 µM: compound 100 μM
Protocol: as §1

[4] = collagen 1 μg/mL, read-out: % Reduction in Aggregation, Collagen (1 μg/mL)
[5] = collagen 5 μg/mL, read-out: % Reduction in Aggregation, Collagen (5 μg/mL)

Q: Which results are given for `Cc1ncc(CNC(=O)c2cccc(C(=N)N)c2)c(CO)c1O` [Compound 2, 3-Carbamimidoyl-N-(5-hydroxy-4-hydroxymethyl-6-methyl-pyridin-3-ylmethyl)-benzamide]?
A: inhibition at 500 µM [1, 4]: 3%; inhibition at 500 µM [1, 5]: 12%; inhibition at 500 µM [2]: 10%; inhibition at 500 µM [3]: 6%

Q: For `Cc1ncc(CNC(=O)c2ccc(C(=N)N)cc2)c(CO)c1O` [Compound 5, 4-Carbamimidoyl-N-(5-hydroxyl-4-hydroxymethyl-6-methyl-pyridin-3-ylmethyl)-benzamide], which inhibition at 500 µM [1, 4] is on record?
A: The inhibition at 500 µM was 91%.

Q: And the inhibition at 500 µM [1, 5]?
A: The inhibition at 500 µM was 27%.

Q: And the inhibition at 500 µM [2]?
A: Its inhibition at 500 µM is 71%.

Q: And the inhibition at 500 µM [3]?
A: The inhibition at 500 µM was 84%.

Q: What does the source list for `Cc1ncc(CNCc2ccc(C(=N)N)cc2)c(CO)c1O` [Compound 7, 4-{[(5-Hydroxyl-4-hydroxymethyl-6-methyl-pyridin-3-ylmethyl)-amino]-methyl}-benzamidine]?
A: inhibition at 500 µM [1, 4]: 2%; inhibition at 500 µM [1, 5]: 8%; inhibition at 500 µM [2]: 26%; inhibition at 500 µM [3]: 34%

Q: How did the inhibition at 500 µM [1, 4] turn out when `Cc1ncc(CNCc2cccc(C(=N)N)c2)c(CO)c1O` [Compound 9, 3-{[(5-Hydroxy-4-hydroxymethyl-6-methyl-pyridin-3-ylmethyl)-amino]-methyl]-benzamidine] was run?
A: Its inhibition at 500 µM is 0%.

Q: And the inhibition at 500 µM [1, 5]?
A: The inhibition at 500 µM was 10%.

Q: And the inhibition at 500 µM [2]?
A: Its inhibition at 500 µM is 2%.

Q: What about the inhibition at 500 µM [3] of the same compound?
A: Its inhibition at 500 µM is 0%.

Q: For `Cc1ncc(CNc2cccc(C(=N)N)c2)c(CO)c1O` [Compound 14, 3-[(5-Hydroxy-4-hydroxymethyl-6-methyl-pyridin-3-ylmethyl)-amino]-benzamidine], which inhibition at 500 µM [1, 4] is on record?
A: Its inhibition at 500 µM is 0%.

Q: What about the inhibition at 500 µM [1, 5] of the same compound?
A: Its inhibition at 500 µM is 3%.

Q: And the inhibition at 500 µM [2]?
A: The inhibition at 500 µM was 16%.

Q: And the inhibition at 500 µM [3]?
A: The inhibition at 500 µM was 8%.

Q: What does the source list for `Cc1ncc(CNC(=O)c2ccc(-c3ccc([N+](=O)[O-])nc3)cc2)c(CO)c1O` [Compound 18, N-(5-Hydroxy-4-hydroxymethyl-6-methyl-pyridin-3-ylmethyl)-4-(6-nitro-pyridin-3-yl)-benzamide]?
A: inhibition at 250 µM [1, 4]: 6%; inhibition at 250 µM [1, 5]: 7%; inhibition at 250 µM [2]: 10%; inhibition at 250 µM [3]: 30%

Q: With `Cc1ncc(CNC(=O)c2ccc(-c3ccc(C(=N)N)cc3)cc2)c(CO)c1O` [Compound 20, 4′-Carbamimidoyl-biphenyl-4-carboxylic (5-hydroxyl-4-hydroxymethyl-6-methyl-pyridin-3-ylmethyl)-amide] as the compound, how does the inhibition at 250 µM [1, 4] read?
A: Its inhibition at 250 µM is 94%.

Q: And the inhibition at 250 µM [1, 5]?
A: Its inhibition at 250 µM is 64%.

Q: What about the inhibition at 250 µM [2] of the same compound?
A: Its inhibition at 250 µM is 93%.

Q: And the inhibition at 250 µM [3]?
A: Its inhibition at 250 µM is 95%.

Q: What does the source list for `COc1c(C)ncc(CNC(=O)c2ccc(-c3ccc(C(=N)N)cc3)cc2)c1CO` [Compound 23, 4′-Carbamimidoyl-biphenyl-4-carboxylic acid (4-hydroxymethyl-5-methoxy-6-methyl-pyridin-3-ylmethyl)-amide]?
A: inhibition at 250 µM [1, 4]: 19%; inhibition at 250 µM [1, 5]: 17%; inhibition at 250 µM [2]: 39%; inhibition at 250 µM [3]: 27%

Q: Which results are given for `Cc1ncc(CNC(=O)c2ccc(-c3ccc(C(=N)N)cc3)cc2)c(C(=O)O)c1O` [Compound 26, 5-{[(4′-Carbamimidoyl-biphenyl-4-carbonyl)-amino]-methyl}-3-hydroxy-2-methyl-isonicotinic acid]?
A: inhibition at 100 µM [1, 4]: 52%; inhibition at 100 µM [1, 5]: 18%; inhibition at 100 µM [2]: 62%; inhibition at 100 µM [3]: 17%

Q: `COC(=O)c1c(CNC(=O)c2ccc(-c3ccc(C(=N)N)cc3)cc2)cnc(C)c1OC` [Compound 28, 5-{[(4′-Carbamimidoyl-biphenyl-4-carbonyl)-amino]-methyl}-3-methoxy-2-methyl-isonicotinic acid methyl ester] was tested. Which inhibition at 250 µM [1, 4] did it give?
A: The inhibition at 250 µM was 17%.

Q: And the inhibition at 250 µM [1, 5]?
A: Its inhibition at 250 µM is 24%.

Q: What about the inhibition at 250 µM [2] of the same compound?
A: The inhibition at 250 µM was 46%.

Q: And the inhibition at 250 µM [3]?
A: Its inhibition at 250 µM is 10%.

Q: Which results are given for `Cc1ncc(CNc2ccc(-c3ccc(C(=N)N)cc3)cn2)c(CO)c1O` [Compound 31, 4-{6-[(5-Hydroxy-4-hydroxymethyl-6-methyl-pyridin-3-ylmethyl)-amino]-pyridin-3-yl}-benzamidine]?
A: inhibition at 250 µM [1, 4]: 74%; inhibition at 250 µM [1, 5]: 28%; inhibition at 250 µM [2]: 79%; inhibition at 250 µM [3]: 64%

Q: Which inhibition at 250 µM [1, 4] does the source give for `Cc1ncc(CNc2ccc(-c3ccc(C(=N)N)cc3)cc2OC(F)(F)F)c(CO)c1O` [Compound 35] here?
A: The inhibition at 250 µM was 86%.

Q: And the inhibition at 250 µM [1, 5]?
A: Its inhibition at 250 µM is 12%.

Q: What about the inhibition at 250 µM [2] of the same compound?
A: Its inhibition at 250 µM is 84%.

Q: What about the inhibition at 250 µM [3] of the same compound?
A: The inhibition at 250 µM was 35%.

Q: With `Cc1ncc(CNc2ccc(-c3ccc(C(=N)N)cc3)cc2C(F)(F)F)c(CO)c1O` [Compound 37, 4′-[(5-Hydroxy-4-hydroxymethyl-6-methyl-pyridin-3-ylmethyl)-amino]-3′-trifluoromethyl-biphenyl-4-carboxamidine] as the compound, how does the inhibition at 250 µM [1, 4] read?
A: The inhibition at 250 µM was 19%.

Q: And the inhibition at 250 µM [1, 5]?
A: Its inhibition at 250 µM is 6%.

Q: What about the inhibition at 250 µM [2] of the same compound?
A: The inhibition at 250 µM was 43%.

Q: What about the inhibition at 250 µM [3] of the same compound?
A: The inhibition at 250 µM was 17%.

Q: Which results are given for `Cc1ncc(CO)c(CNc2ccc(C(=N)N)cc2)c1O` [Compound 39, 4-[(3-Hydroxy-5-hydroxymethyl-2-methyl-pyridin-4-ylmethyl)-amino]-benzamidine]?
A: inhibition at 100 µM [1, 4]: 1%; inhibition at 100 µM [1, 5]: 8%; inhibition at 100 µM [2]: 3%; inhibition at 100 µM [3]: 5%

Q: Which inhibition at 250 µM [1, 4] does the source give for `Cc1ncc(CNc2ccc(-c3ccc(C(=N)N)cc3)cc2)c(C)c1O` [Compound 43, 4′-[(5-Hydroxy-4,6-dimethyl-pyridin-3-ylmethyl)-amino]-biphenyl-4-carboxamidine] here?
A: The inhibition at 250 µM was 100%.

Q: What about the inhibition at 250 µM [1, 5] of the same compound?
A: The inhibition at 250 µM was 0%.

Q: And the inhibition at 250 µM [2]?
A: The inhibition at 250 µM was 87%.

Q: And the inhibition at 250 µM [3]?
A: Its inhibition at 250 µM is 69%.

Q: With `Cc1ncc(CN(Cc2ccc(C(=N)N)cc2)c2ccc(C(=N)N)cc2)c(CO)c1O` [Compound 52, 4-(N-(4-Carbamimidoyl-benzyl)-N-((5-hydroxy-4-(hydroxymethyl)-6-methylpyridin-3-yl)methyl)amino)benzamidine] as the compound, how does the inhibition at 50 µM [1, 4] read?
A: Its inhibition at 50 µM is 93%.

Q: What about the inhibition at 50 µM [1, 5] of the same compound?
A: Its inhibition at 50 µM is 7%.

Q: What about the inhibition at 50 µM ([2]; compound 50 μM) of the same compound?
A: Its inhibition at 50 µM is 95%.

Q: What about the inhibition at 50 µM ([3]; compound 50 μM) of the same compound?
A: The inhibition at 50 µM was 95%.

Q: What does the source list for `Cc1ncc(CCNCc2ccc(C(=N)N)cc2)c(CO)c1O` [Compound 55, 4-{[2-(5-Hydroxy-4-hydroxymethyl-6-methyl-pyridin-3-yl)-ethylamino]-methyl}-benzamidine]?
A: inhibition at 500 µM [1, 4]: 24%; inhibition at 500 µM [1, 5]: 20%; inhibition at 500 µM [2]: 38%; inhibition at 500 µM [3]: 75%

Q: For `Cc1ncc(CCNCc2cccc(C(=N)N)c2)c(CO)c1O` [Compound 57, 3-{[2-(5-Hydroxy-4-hydroxymethyl-6-methyl-pyridin-3-yl)ethylamino]methyl}-benzamidine], which inhibition at 500 µM [1, 4] is on record?
A: Its inhibition at 500 µM is 6%.

Q: What about the inhibition at 500 µM [1, 5] of the same compound?
A: Its inhibition at 500 µM is 0%.

Q: What about the inhibition at 500 µM [2] of the same compound?
A: The inhibition at 500 µM was 0%.

Q: And the inhibition at 500 µM [3]?
A: Its inhibition at 500 µM is 14%.

Q: Which results are given for `Cc1ncc(CCNC(=O)c2ccc(C(=N)N)cc2)c(CO)c1O` [Compound 59, 4-Carbamimidoyl-N-[2-(5-hydroxy-4-hydroxymethyl-6-methyl-pyridin-3-yl)-ethyl]-benzamide]?
A: inhibition at 500 µM [1, 4]: 28%; inhibition at 500 µM [1, 5]: 11%; inhibition at 500 µM [2]: 55%; inhibition at 500 µM [3]: 67%

Q: With `Cc1ncc(CCNC(=O)c2cccc(C(=N)N)c2)c(CO)c1O` [Compound 61, 3-Carbamimidoyl-N-[2-(5-hydroxy-4-hydroxymethyl-6-methyl-pyridin-3-yl)-ethyl]-benzamide] as the compound, how does the inhibition at 500 µM [1, 4] read?
A: The inhibition at 500 µM was 0%.

Q: And the inhibition at 500 µM [1, 5]?
A: The inhibition at 500 µM was 10%.

Q: What about the inhibition at 500 µM [2] of the same compound?
A: The inhibition at 500 µM was 2%.

Q: What about the inhibition at 500 µM [3] of the same compound?
A: The inhibition at 500 µM was 0%.
